Experimental findings from US7385026B1, “Modified ghrelin polypeptides” (priority 1999, dated 2008) are described below.

Where “and” joins values, the source holds several entries; their conditions need not be identical. Identical values can stand only once. Square brackets hold non-standard residues; d marks the D form. Peptide text beside a SMILES is read from it. * marks the point of attachment. Octanoyl = CCCCCCCC(=O)*; Aib = CC(C)(N)C(=O)O; Octyl = CCCCCCCC*

The target of assay [1] is T1, rat GHS-receptor (GHR-R) (Rattus norvegicus, UniProt O08725).
T1 construct: A full-length cDNA for rat GHR-R was obtained by RT-PCR; expressed in transfected cells
T1 sequence (O08725 whole entry): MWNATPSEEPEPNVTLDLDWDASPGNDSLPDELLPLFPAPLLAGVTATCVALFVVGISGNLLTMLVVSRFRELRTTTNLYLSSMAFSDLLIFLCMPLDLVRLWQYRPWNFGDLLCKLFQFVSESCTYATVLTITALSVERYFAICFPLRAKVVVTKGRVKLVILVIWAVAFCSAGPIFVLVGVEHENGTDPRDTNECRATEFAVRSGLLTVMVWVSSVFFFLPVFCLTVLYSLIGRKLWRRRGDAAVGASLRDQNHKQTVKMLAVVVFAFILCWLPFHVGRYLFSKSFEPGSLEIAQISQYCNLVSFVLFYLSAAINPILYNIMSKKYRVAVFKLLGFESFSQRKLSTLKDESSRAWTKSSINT
Nature of the assay: Ca-releasing activity (increase in intracellular calcium) in CHO-GHSR62 cells, FLIPR. Type of assay: cell-based. As to conditions: for EC50: CHO-GHSR62 cells (CHO cells expressing rat GHS receptor), FLIPR, read-out: Ca-releasing activity EC50; for Ca-releasing activity (in words): CHO-GHSR62 cells. Summed up: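 CHO cells stably expressing full-length rat GHS-R (CHO-GHSR62) were cultured 12–15 h, loaded with 4 μM Fluo4 for 1 h and washed with Hank's BSS containing 20 mM Hepes and 2.5 mM probenecid. Ca-releasing activity of ghrelin peptides, fragments or derivatives was read by FLIPR as the fluorescence change after sample addition.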

In assay [2] the test system is IGS-SD strain rats. Kind of assay: GH-releasing activity of long-chain ghrelin derivatives in rat (plasma GH 15 min after i.v.). The assay is classed as in vivo. As to conditions: for GH level in plasma in 15 min. after administration, M ± S.D.: n=3; for GH level in plasma in 15 min. after administration, individual rats (Rat 1-3): rats under Nembutal; for GH-releasing activity (in words): i.v., plasma GH at 15 minutes. How it is done:
Fifteen minutes after administration, plasma was collected, and the concentration of GH in plasma was measured by radioimmunoassay (Biotrak/Amersham). Separately, 0.2% bovine serum albumin (BSA)-physiological saline, 6 nmol/kg rGhrelin and hGhrelin, or 80 nmol/kg Ipamorelin (Compound 80) was administered into other rats as the control, respectively, and the concentrations of GH in plasma in 15 minutes after administration were compared (for each sample, n=3).

Usually EC50 stands for the concentration giving half of the maximal effect. Consider `CC(C)C[C@H](NC(=O)[C@H](CCCCN)NC(=O)[C@H](C)NC(=O)[C@@H]1CCCN1C(=O)[C@@H]1CCCN1C(=O)[C@H](CCCCN)NC(=O)[C@H](CCCCN)NC(=O)[C@H](CO)NC(=O)[C@H](CCC(=O)O)NC(=O)[C@H](CCCCN)NC(=O)[C@H](CCCNC(=N)N)NC(=O)[C@H](CCC(N)=O)NC(=O)[C@H](CCC(N)=O)NC(=O)[C@@H](NC(=O)[C@H](CCCNC(=N)N)NC(=O)[C@H](CCC(N)=O)NC(=O)[C@H](Cc1c[nH]cn1)NC(=O)[C@H](CCC(=O)O)NC(=O)[C@@H]1CCCN1C(=O)[C@H](CO)NC(=O)[C@H](CC(C)C)NC(=O)[C@H](Cc1ccccc1)NC(=O)[C@H](COC(=O)CCc1ccccc1)NC(=O)[C@H](CO)NC(=O)CN)C(C)C)C(=O)N[C@@H](CCC(N)=O)C(=O)N1CCC[C@H]1C(=O)N[C@@H](CCCNC(=N)N)C(=O)O` [Compound 15, [Ser^3(3-Phenylpropionyl)]-hGhrelin], for which the EC50 in assay [1] was 1.4 nM. In assay [2] (dose 18 nmol/kg i.v.), the “GH level in plasma in 15 min. after administration, M ± S.D.” value (“GH level in plasma … M ± S.D.” for short) was 1926 ± 299 ng/mL. Further, the “GH level in plasma in 15 min. after administration, individual rats (Rat 1-3)” value (“GH level in plasma … (Rat 1-3)” below) in assay [2] (dose 18 nmol/kg i.v., listed as [Ser^3(Phenylpropionyl)]-hGhrelin) is 2119 ng/mL and 2078 ng/mL and 1581 ng/mL. Moreover, in assay [2], the “GH-releasing activity (in words)” value is given as “strong GH-releasing activity”.

As for `CCCCCCCCOC[C@H](NC(=O)[C@H](CO)NC(=O)CN)C(=O)N[C@@H](Cc1ccccc1)C(=O)N[C@@H](CC(C)C)C(=O)N[C@@H](CO)C(=O)N1CCC[C@H]1C(=O)N[C@@H](CCC(=O)O)C(=O)N[C@@H](Cc1c[nH]cn1)C(=O)N[C@@H](CCC(N)=O)C(=O)N[C@@H](CCCNC(=N)N)C(=O)N[C@H](C(=O)N[C@@H](CCC(N)=O)C(=O)N[C@@H](CCC(N)=O)C(=O)N[C@@H](CCCNC(=N)N)C(=O)N[C@@H](CCCCN)C(=O)N[C@@H](CCC(=O)O)C(=O)N[C@@H](CO)C(=O)N[C@@H](CCCCN)C(=O)N[C@@H](CCCCN)C(=O)N1CCC[C@H]1C(=O)N1CCC[C@H]1C(=O)N[C@@H](C)C(=O)N[C@@H](CCCCN)C(=O)N[C@@H](CC(C)C)C(=O)N[C@@H](CCC(N)=O)C(=O)N1CCC[C@H]1C(=O)N[C@@H](CCCNC(=N)N)C(=O)O)C(C)C` [Compound 17, [Ser^3(Octyl)]-hGhrelin], the EC50 in assay [1] amounted to 1.2 nM. In assay [2] (dose 18 nmol/kg i.v.), the “GH level in plasma … M ± S.D.” value amounted to 1657 ± 75 ng/mL; the “GH level in plasma … (Rat 1-3)” value is 1626 ng/mL and 1602 ng/mL and 1743 ng/mL. The “GH-releasing activity (in words)” value in assay [2] is reported as “strong GH-releasing activity”.

As to `CC(C)C[C@H](NC(=O)[C@H](CCCCN)NC(=O)[C@H](C)NC(=O)[C@@H]1CCCN1C(=O)[C@@H]1CCCN1C(=O)[C@H](CCCCN)NC(=O)[C@H](CCCCN)NC(=O)[C@H](CO)NC(=O)[C@H](CCC(=O)O)NC(=O)[C@H](CCCCN)NC(=O)[C@H](CCCNC(=N)N)NC(=O)[C@H](CCC(N)=O)NC(=O)[C@H](CCC(N)=O)NC(=O)[C@@H](NC(=O)[C@H](CCCNC(=N)N)NC(=O)[C@H](CCC(N)=O)NC(=O)[C@H](Cc1c[nH]cn1)NC(=O)[C@H](CCC(=O)O)NC(=O)[C@@H]1CCCN1C(=O)[C@H](CO)NC(=O)[C@H](CC(C)C)NC(=O)[C@H](Cc1ccccc1)NC(=O)[C@H](Cc1ccc2ccccc2c1)NC(=O)[C@H](CO)NC(=O)CN)C(C)C)C(=O)N[C@@H](CCC(N)=O)C(=O)N1CCC[C@H]1C(=O)N[C@@H](CCCNC(=N)N)C(=O)O` [Compound 65, [2-^LNal^3]-hGhrelin], the EC50 in assay [1] is 8.2 nM. In assay [2] (dose 100 nmol/kg i.v.), the “GH level in plasma … M ± S.D.” value was 1524 ± 147 ng/mL; the “GH level in plasma … (Rat 1-3)” value is 1637 ng/mL and 1576 ng/mL and 1357 ng/mL.

On to `CC(C)C[C@H](NC(=O)[C@H](CCCCN)NC(=O)[C@H](C)NC(=O)[C@@H]1CCCN1C(=O)[C@@H]1CCCN1C(=O)[C@H](CCCCN)NC(=O)[C@H](CCCCN)NC(=O)[C@H](CO)NC(=O)[C@H](CCC(=O)O)NC(=O)[C@H](CCCCN)NC(=O)[C@H](CCCNC(=N)N)NC(=O)[C@H](CCC(N)=O)NC(=O)[C@H](CCC(N)=O)NC(=O)[C@@H](NC(=O)[C@H](CCCNC(=N)N)NC(=O)[C@H](CCC(N)=O)NC(=O)[C@H](Cc1c[nH]cn1)NC(=O)[C@H](CCC(=O)O)NC(=O)[C@@H]1CCCN1C(=O)[C@H](CO)NC(=O)[C@H](CC(C)C)NC(=O)[C@H](Cc1ccccc1)NC(=O)[C@H](CCCCN)NC(=O)[C@H](CO)NC(=O)CN)C(C)C)C(=O)N[C@@H](CCC(N)=O)C(=O)N1CCC[C@H]1C(=O)N[C@@H](CCCNC(=N)N)C(=O)O` [Compound 72, [Lys^3]-hGhrelin], for which, in assay [1], the EC50 was 120 nM.

With `CCCC[C@H](NC(=O)[C@H](CO)NC(=O)CN)C(=O)N[C@@H](Cc1ccccc1)C(=O)N[C@@H](CC(C)C)C(=O)N[C@@H](CO)C(=O)N1CCC[C@H]1C(=O)N[C@@H](CCC(=O)O)C(=O)N[C@@H](Cc1c[nH]cn1)C(=O)N[C@@H](CCC(N)=O)C(=O)N[C@@H](CCCNC(=N)N)C(=O)N[C@H](C(=O)N[C@@H](CCC(N)=O)C(=O)N[C@@H](CCC(N)=O)C(=O)N[C@@H](CCCNC(=N)N)C(=O)N[C@@H](CCCCN)C(=O)N[C@@H](CCC(=O)O)C(=O)N[C@@H](CO)C(=O)N[C@@H](CCCCN)C(=O)N[C@@H](CCCCN)C(=O)N1CCC[C@H]1C(=O)N1CCC[C@H]1C(=O)N[C@@H](C)C(=O)N[C@@H](CCCCN)C(=O)N[C@@H](CC(C)C)C(=O)N[C@@H](CCC(N)=O)C(=O)N1CCC[C@H]1C(=O)N[C@@H](CCCNC(=N)N)C(=O)O)C(C)C` [Compound 73, [Nle^3]-hGhrelin], the EC50 in assay [1] came out at 2800 nM.

`CC(C)C[C@H](NC(=O)[C@H](CCCCN)NC(=O)[C@H](C)NC(=O)[C@@H]1CCCN1C(=O)[C@@H]1CCCN1C(=O)[C@H](CCCCN)NC(=O)[C@H](CCCCN)NC(=O)[C@H](CO)NC(=O)[C@H](CCC(=O)O)NC(=O)[C@H](CCCCN)NC(=O)[C@H](CCCNC(=N)N)NC(=O)[C@H](CCC(N)=O)NC(=O)[C@H](CCC(N)=O)NC(=O)[C@@H](NC(=O)[C@H](CCCNC(=N)N)NC(=O)[C@H](CCC(N)=O)NC(=O)[C@H](Cc1c[nH]cn1)NC(=O)[C@H](CCC(=O)O)NC(=O)[C@@H]1CCCN1C(=O)[C@H](CO)NC(=O)[C@H](CC(C)C)NC(=O)[C@H](Cc1ccccc1)NC(=O)[C@@H](NC(=O)[C@H](CO)NC(=O)CN)C(C)C)C(C)C)C(=O)N[C@@H](CCC(N)=O)C(=O)N1CCC[C@H]1C(=O)N[C@@H](CCCNC(=N)N)C(=O)O` [Compound 74, [Val^3]-hGhrelin]: the EC50 in assay [1] is 1600 nM.

For the compound `CCCCCCCC(=O)OC[C@H](NC(=O)[C@H](CO)NC(=O)CN)C(=O)N[C@@H](Cc1ccccc1)C(=O)N[C@@H](CC(C)C)C(=O)N[C@@H](CO)C(=O)N[C@@H](CCCCN)C(N)=O` [Compound 75, [Lys^7]-Ghrelin (1-7)-amide] (H-GSS(Octanoyl)FLSK-NH2), in assay [1], the EC50 amounted to 11 nM.

As to `CCCCCCCCOC[C@H](NC(=O)CCCCN)C(=O)N[C@@H](Cc1ccccc1)C(=O)N[C@@H](CCCCN)C(N)=O` [Compound 76, [N-Aminopentanoyl, Ser^3(Octyl), Lys^5]-Ghrelin (3-5)-amide], the EC50 in assay [1] stood at 12 nM.

As to `CCCCCCCCOC[C@@H](NC(=O)CCCCN)C(=O)N[C@H](Cc1ccccc1)C(=O)N[C@@H](CCCCN)C(N)=O` [Compound 77, [N-Aminopentanoyl, ^DSer^3(Octyl), ^DPhe^4, Lys^5]-Ghrelin (3-5)-amide], the EC50 in assay [1] amounted to 1600 nM.

For the compound `CCCCCCCCOC[C@H](NC(=O)[C@H](Cc1c[nH]cn1)NC(=O)C(C)(C)N)C(=O)N[C@@H](Cc1ccccc1)C(=O)N[C@@H](CCCCN)C(N)=O` [Compound 78, [Aib^1, His^2, Ser^3(Octyl), Lys^5]-Ghrelin (1-5)-amide] (H-[Aib]HS(Octyl)FK-NH2), the concentration for a half-maximal effect (EC50) in assay [1] came out at 34 nM.

For `CCCCCCCCOC[C@@H](NC(=O)[C@H](Cc1c[nH]cn1)NC(=O)C(C)(C)N)C(=O)N[C@H](Cc1ccccc1)C(=O)N[C@@H](CCCCN)C(N)=O` [Compound 79, [Aib^1, His^2, ^DSer^3(Octyl), ^DPhe^4, Lys^5]-Ghrelin (1-5)-amide] (H-[Aib]H[dS](Octyl)[dF]K-NH2), the EC50 in assay [1] stood at 38 nM.

In the case of `CCCCCCCCOC[C@H](NC(=O)CCCCN)C(=O)N[C@@H](Cc1ccccc1)C(=O)N[C@@H](CC(C)C)C(N)=O` [Compound 81, [N-Aminopentanoyl, Ser^3(Octyl)]-Ghrelin (3-5)-amide], the EC50 in assay [1] is 11 nM.

For `CCCCCCCCOC[C@H](NC(=O)CCCCN)C(=O)N[C@@H](Cc1ccccc1)C(=O)N[C@@H](CC(C)C)C(=O)NC` [Compound 82, [N-Aminopentanoyl, Ser^3(Octyl)]-Ghrelin (3-5)-methylamide], the EC50 in assay [1] was 12 nM.

As for `CCCCCCCCOC[C@H](NC(=O)CCCCN)C(=O)N[C@@H](Cc1ccccc1)C(=O)N[C@@H](CC(C)C)C(=O)NCC` [Compound 83, [N-Aminopentanoyl, Ser^3(Octyl)]-Ghrelin (3-5)-ethylamide], in assay [1], the EC50 was 22 nM.

For the compound `CCCCCCCCOC[C@H](NC(=O)CCCCN)C(=O)N[C@@H](Cc1ccccc1)C(=O)N[C@@H](CC(C)C)C(=O)NCc1ccccc1` [Compound 84, [N-Aminopentanoyl, Ser^3(Octyl)]-Ghrelin (3-5)-benzylamide], the EC50 in assay [1] was found to be 98 nM.

For the compound `CCCCCCCCOC[C@H](NC(=O)CCCCN)C(=O)N[C@@H](Cc1ccccc1)C(=O)N[C@@H](CC(C)C)C(=O)NCCN` [Compound 85, [N-Aminopentanoyl, Ser^3(Octyl)]-Ghrelin (3-5), aminoethylamide], the EC50 in assay [1] worked out at 3.5 nM.

As for `CCCCCCCC(=O)O` [n-octanoic acid, reference compound], the “Ca-releasing activity (in words)” value in assay [1] is listed as “did not show a significant Ca-releasing activity”.

Take “GHRH: GH releasing hormone, expressed as GRF in FIG. 3a [reference compound]”: the “Ca-releasing activity (in words)” value in assay [1] is listed as “did not exhibit the Ca-releasing activity”.
